Test results as given in US10894798B2, “Substituted dihydropyrrolopyrazole derivative” (UBE INDUSTRIES, LTD., priority 2015, dated 2021).
Where two headings read alike, the source gives them in different places.

Key:
[1] = system: human large intestine cancer cell line (HCT-116); assay: Human large intestine cancer (HCT-116) cell growth inhibition test; format: cell-based
How it was run: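 HCT-116 cells were seeded at 0.5 to 2.0×10^3 cells/well in McCoy's 5A with 10% FBS and dosed with compound at 0.1% final DMSO after overnight culture. Growth was measured by sulforhodamine B absorbance after 3 days. GI50 was calculated from the inhibition rate at each concentration.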

[2] = system: human large intestine cancer cell (HCT 116) tumor; assay: Tumor growth inhibition test in HCT 116-subcutaneously transplanted nude mouse; format: in vivo; conditions: dose of 100 mg/kg, repeated oral administration, HCT-116 in female BALB nude mice, control group = 100%, read-out: rate of suppression of tumor volume
Description: A human large intestine cancer cell line (HCT-116) was cultured in a McCoy's 5A medium containing 10% FBS and 1% penicillin/streptomycin/amphotericin B and adjusted to 1.0×10^8 cells/mL with PBS or Hanks solution (HBSS(−)). The prepared cell suspension was subcutaneously injected at 0.1 mL/mouse to the right abdomens of female BALB nude mice (supplied by Charles River Laboratories Japan, Inc.). After rearing for a certain period, the long diameter (mm) and short diameter (mm) of tumor were measured with electronic calipers, and the tumor volume was calculated according to the following expression: Tumor volume (mm^3)=(Long diameter)×(Short diameter)×(Short diameter)×0.5
Individuals whose tumor volume was within the range of 50 to 200 mm^3 were selected and grouped such that the tumor volume was almost equivalent, then a test compound or only a solvent was orally administered in a repeated manner, and the body weights and tumor volume were measured. A test compound was suspended in a 0.5 w/v % aqueous methylcellulose solution (0.5% MC) (manufactured by Wako Pure Chemical Industries, Ltd.) and orally administered at 10 mL/kg in a repeated manner. When the tumor volume of the control group was defined as 100%, the rate of suppression of tumor volume (%) at each dose of the test compound was calculated.

IL-17 production = assay: Human PBMC various-stimulant cocktail-induced IL-17 production inhibition test; format: cell-based; conditions: 120 h, human T-cell suspension from PBMC, culture for 5 days, ELISA
Text: PBMC was separated and collected by using Ficoll-Paque (manufactured by GE Healthcare Japan Corp.) from blood collected from a healthy human adult in the presence of heparin. The collected PBMC was further cultured in a flask for a certain time, and then, non-adherent cells in the supernatant were collected and used as a T-cell suspension.
A RPMI1640 medium containing 10% FBS, 1% penicillin/streptomycin/amphotericin B, essential amino acids, and pyruvic acid and containing a test compound dissolved in DMSO, a human CD28 antibody, a human IFN-γ antibody, a human IL-4 antibody, human IL-6, human IL-23, human IL-1β, and human TGF-β was added at 100 μL/well to T cell Activation Plate Anti-Human CD3 96-well plate. Subsequently, 100 μL of a T-cell suspension adjusted to 2×10^5 cells/mL was added to each well (final DMSO concentration: 0.1%). Only DMSO was added to wells not supplemented with the test compound. After culture for 5 days in a carbon dioxide incubator, the culture supernatant was collected and stored at −20° C. until IL-17 content measurement.
In the measurement of an IL-17 content in the culture supernatant, a sandwich ELISA kit (Quantikine Human IL-17, manufactured by R&D Systems, Inc.) was used. The IL-17 content of each sample was calculated from the calibration curve of Standard IL-17 included in the kit. […] The concentration of the test compound necessary for inhibiting 50% of IL-17 production (IC50 value) was calculated from the concentration of the added test compound and the rate of inhibition of IL-17 production by the test compound by using EXSUS (version 8.1.0, manufactured by CAC Exicare Corp.).

[3] = HCT-116 (row of Table 50), read-out: GI50 value (concentration necessary for inhibiting 50% of cell growth)
[4] = HCT-116, 72 h, culture for 3 days, sulforhodamine B, read-out: GI50 value, HCT-116 cell growth inhibition

SMILES	GI50 [1, 3]	GI50 [1, 4]	inhibition in vivo at 100 mg/kg [2]	IC50 (IL-17 production)
CC1(C)c2[nH]nc(NC(=O)C3([Si](C)(C)C)CCC3)c2CN1C(=O)Nc1ccccc1F [IV-3, N-(2-Fluorophenyl)-6,6-dimethyl-3-[1-(trimethylsilyl)cyclobutanecarboxamido]-4,6-dihydropyrrolo[3,4-c]pyrazole-5(1H)-carboxamide]	< 0.3 µM	≤ 0.1 µM	≥ 50%	≤ 0.1 µM
CC1(C)c2[nH]nc(NC(=O)C3([Si](C)(C)C)CCC3)c2CN1C(=O)Nc1ccccc1Br [IV-15, N-(2-Bromophenyl)-6,6-dimethyl-3-[1-(trimethylsilyl)cyclobutanecarboxamido]-4,6-dihydropyrrolo[3,4-c]pyrazole-5(1H)-carboxamide]	–	≤ 0.1 µM	≥ 50%	–
Cc1ccccc1NC(=O)N1Cc2c(NC(=O)C3([Si](C)(C)C)CCC3)n[nH]c2C1(C)C [IV-21, 6,6-Dimethyl-N-(o-tolyl)-3-[1-(trimethylsilyl)cyclobutanecarboxamido]-4,6-dihydropyrrolo[3,4-c]pyrazole-5(1H)-carboxamide]	–	≤ 0.1 µM	≥ 50%	–
CC1(C)c2[nH]nc(NC(=O)C3([Si](C)(C)C)CCC3)c2CN1C(=O)Nc1c(F)cccc1Cl [IV-113, N-(2-Chloro-6-fluorophenyl)-6,6-dimethyl-3-[1-(trimethylsilyl)cyclobutanecarboxamido]-4,6-dihydropyrrolo[3,4-c]pyrazole-5(1H)-carboxamide]	–	≤ 0.1 µM	≥ 50%	–
Cc1ccc(F)c(NC(=O)N2Cc3c(NC(=O)C4([Si](C)(C)C)CCC4)n[nH]c3C2(C)C)c1 [IV-127, N-(2-Fluoro-5-methylphenyl)-6,6-dimethyl-3-[1-(trimethylsilyl)cyclobutanecarboxamido]-4,6-dihydropyrrolo[3,4-c]pyrazole-5 (1H)-carboxamide]	–	≤ 0.1 µM	≥ 50%	–
Cc1cccc(F)c1NC(=O)N1Cc2c(NC(=O)C3([Si](C)(C)C)CCC3)n[nH]c2C1(C)C [IV-129, N-(2-Fluoro-6-methylphenyl)-6,6-dimethyl-3-[1-(trimethylsilyl)cyclobutanecarboxamido]-4,6-dihydropyrrolo[3,4-c]pyrazole-5 (1H)-carboxamide]	–	≤ 0.1 µM	–	≤ 0.1 µM
CCc1cccc(F)c1NC(=O)N1Cc2c(NC(=O)C3([Si](C)(C)C)CCC3)n[nH]c2C1(C)C [IV-137, N-(2-Ethyl-6-fluorophenyl)-6,6-dimethyl-3-[1-(trimethylsilyl)cyclobutanecarboxamido]-4,6-dihydropyrrolo[3,4-c]pyrazole-5(1H)-carboxamide]	–	≤ 0.1 µM	–	≤ 0.1 µM
COc1cccc(F)c1NC(=O)N1Cc2c(NC(=O)C3([Si](C)(C)C)CCC3)n[nH]c2C1(C)C [IV-161, N-(2-Fluoro-6-methoxyphenyl)-6,6-dimethyl-3-[1-(trimethylsilyl)cyclobutanecarboxamido]-4,6-dihydropyrrolo[3,4-c]pyrazole-5(1H)-carboxamide]	–	≤ 0.1 µM	–	–
CC1(C)c2[nH]nc(NC(=O)C3([Si](C)(C)C)CCC3)c2CN1C(=O)Nc1c(F)cccc1OC(F)F [IV-169, N-[2-(Difluoromethoxy)-6-fluorophenyl]-6,6-dimethyl-3-[1-(trimethylsilyl)cyclobutanecarboxamido]-4,6-dihydropyrrolo[3,4-c]pyrazole-5(1H)-carboxamide]	–	≤ 0.1 µM	–	–
CC1(C)c2[nH]nc(NC(=O)C3([Si](C)(C)C)CCC3)c2CN1C(=O)Nc1c(Cl)cccc1Cl [IV-199, N-(2,6-Dichlorophenyl)-6,6-dimethyl-3-[1-(trimethylsilyl)cyclobutanecarboxamido]-4,6-dihydropyrrolo[3,4-c]pyrazole-5(1H)-carboxamide]	–	≤ 0.1 µM	≥ 50%	≤ 0.1 µM
Cc1cccc(Cl)c1NC(=O)N1Cc2c(NC(=O)C3([Si](C)(C)C)CCC3)n[nH]c2C1(C)C [IV-215, N-(2-Chloro-6-methylphenyl)-6,6-dimethyl-3-[1-(trimethylsilyl)cyclobutanecarboxamido]-4,6-dihydropyrrolo[3,4-c]pyrazole-5 (1H)-carboxamide]	< 0.3 µM	≤ 0.1 µM	≥ 50%	≤ 0.1 µM
COc1cccc(Cl)c1NC(=O)N1Cc2c(NC(=O)C3([Si](C)(C)C)CCC3)n[nH]c2C1(C)C [IV-247, N-(2-Chloro-6-methoxyphenyl)-6,6-dimethyl-3-[1-(trimethylsilyl)cyclobutanecarboxamido]-4,6-dihydropyrrolo[3,4-c]pyrazole-5(1H)-carboxamide]	–	≤ 0.1 µM	–	≤ 0.1 µM
Cc1cccc(Br)c1NC(=O)N1Cc2c(NC(=O)C3([Si](C)(C)C)CCC3)n[nH]c2C1(C)C [IV-299, N-(2-Bromo-6-methylphenyl)-6,6-dimethyl-3-[1-(trimethylsilyl)cyclobutanecarboxamido]-4,6-dihydropyrrolo[3,4-c]pyrazole-5 (1H)-carboxamide]	< 0.3 µM	≤ 0.1 µM	≥ 50%	≤ 0.1 µM
Cc1cc(F)ccc1NC(=O)N1Cc2c(NC(=O)C3([Si](C)(C)C)CCC3)n[nH]c2C1(C)C [IV-359, N-(4-Fluoro-2-methylphenyl)-6,6-dimethyl-3-[1-(trimethylsilyl)cyclobutanecarboxamido]-4,6-dihydropyrrolo[3,4-c]pyrazole-5 (1H)-carboxamide]	–	≤ 0.1 µM	≥ 50%	–
Cc1ccc(F)cc1NC(=O)N1Cc2c(NC(=O)C3([Si](C)(C)C)CCC3)n[nH]c2C1(C)C [IV-361, N-(5-Fluoro-2-methylphenyl)-6,6-dimethyl-3-[1-(trimethylsilyl)cyclobutanecarboxamido]-4,6-dihydropyrrolo[3,4-c]pyrazole-5 (1H)-carboxamide]	< 0.3 µM	≤ 0.1 µM	≥ 50%	≤ 0.1 µM
Cc1ccc(C)c(NC(=O)N2Cc3c(NC(=O)C4([Si](C)(C)C)CCC4)n[nH]c3C2(C)C)c1 [IV-379, N-(2,5-Dimethylphenyl)-6,6-dimethyl-3-[1-(trimethylsilyl)cyclobutanecarboxamido]-4,6-dihydropyrrolo[3,4-c]pyrazole-5(1H)-carboxamide]	< 0.3 µM	≤ 0.1 µM	≥ 50%	≤ 0.1 µM
CCc1cccc(C)c1NC(=O)N1Cc2c(NC(=O)C3([Si](C)(C)C)CCC3)n[nH]c2C1(C)C [IV-389, N-(2-Ethyl-6-methylphenyl)-6,6-dimethyl-3-[1-(trimethylsilyl)cyclobutanecarboxamido]-4,6-dihydropyrrolo[3,4-c]pyrazole-5 (1H)-carboxamide]	–	≤ 0.1 µM	≥ 50%	≤ 0.1 µM
CC1(C)c2[nH]nc(NC(=O)C3([Si](C)(C)C)CCC3)c2CN1C(=O)Nc1c(F)ccc(F)c1F [IV-597, 6,6-Dimethyl-N-(2,3,6-trifluorophenyl)-3-[1-(trimethylsilyl)cyclobutanecarboxamido]-4,6-dihydropyrrolo[3,4-c]pyrazole-5(1H)-carboxamide]	–	≤ 0.1 µM	≥ 50%	–
CC1(C)c2[nH]nc(NC(=O)C3([Si](C)(C)C)CCC3)c2CN1C(=O)Nc1c(F)ccc2cc(Cl)oc12 [IV-1063, N-(2-Chloro-6-fluorobenzofuran-7-yl)-6,6-dimethyl-3-[1-(trimethylsilyl)cyclobutanecarboxamido]-4,6-dihydropyrrolo[3,4-c]pyrazole-5(1H)-carboxamide]	–	≤ 0.1 µM	≥ 50%	–
